Measured values as given in paper PMC2603005, “Structural insights into phenylethanolamines high-affinity binding site in NR2B from binding and molecular modeling studies” (Molecular Brain, 2008).
Like-named read-outs stand apart in the source and are kept apart here. One block for each compound: values may come before it.

Key:
[1] = target: T1, 6 × His-ATD2B (amino-terminal domain of NR2B subunit), wild type (Rattus norvegicus, UniProt Q00960); assay: biochemical
[2] = target: T1, 6 × His-ATD2B (amino-terminal domain of NR2B subunit), wild type; assay: CD ligand displacement: RO25,6981 displacing saturating ifenprodil on 6 × His-ATD2B; format: binding; set-up: representation of the ATD2B construct (Arg27 to Arg393) with 6xHis-tag and linker; made in house
Method: DLS measurements were made with DynaPro (Protein Solutions) and CD spectra were measured at 25°C on a Jasco J-715 Spectropolarimeter equipped with a 0.1 cm path-length cuvette (Jasco Corporation, Tokyo, Japan) as described previously. For the CD assays, the refolded protein was concentrated to 1 mg/ml using Vivaspin 2 ml concentrator (Vivascience). […] The CD spectra of the wild-type and mutant 6 × His-ATD2B proteins in the absence and presence of a ligand were recorded from 190 to 250 nm. The CD spectrum of Buffer 2 was subtracted from all the CD spectra obtained. […] All experiments were performed using at least two separate batches of induced and refolded 6 × His-ATD2B proteins (both wild-type and mutants), each batch in duplicates or triplicates. The dose-dependent binding curves of ligands to 6 × His-ATD2B were fitted by the following equation: […]

NR1-1a/NR2B receptors = NR1-1a/NR2B receptors (Rattus norvegicus, UniProt P35439+Q00960); assay: cell-based
Sequence of NR1-1a/NR2B receptors (Q00960 27-1482, other chains not shown): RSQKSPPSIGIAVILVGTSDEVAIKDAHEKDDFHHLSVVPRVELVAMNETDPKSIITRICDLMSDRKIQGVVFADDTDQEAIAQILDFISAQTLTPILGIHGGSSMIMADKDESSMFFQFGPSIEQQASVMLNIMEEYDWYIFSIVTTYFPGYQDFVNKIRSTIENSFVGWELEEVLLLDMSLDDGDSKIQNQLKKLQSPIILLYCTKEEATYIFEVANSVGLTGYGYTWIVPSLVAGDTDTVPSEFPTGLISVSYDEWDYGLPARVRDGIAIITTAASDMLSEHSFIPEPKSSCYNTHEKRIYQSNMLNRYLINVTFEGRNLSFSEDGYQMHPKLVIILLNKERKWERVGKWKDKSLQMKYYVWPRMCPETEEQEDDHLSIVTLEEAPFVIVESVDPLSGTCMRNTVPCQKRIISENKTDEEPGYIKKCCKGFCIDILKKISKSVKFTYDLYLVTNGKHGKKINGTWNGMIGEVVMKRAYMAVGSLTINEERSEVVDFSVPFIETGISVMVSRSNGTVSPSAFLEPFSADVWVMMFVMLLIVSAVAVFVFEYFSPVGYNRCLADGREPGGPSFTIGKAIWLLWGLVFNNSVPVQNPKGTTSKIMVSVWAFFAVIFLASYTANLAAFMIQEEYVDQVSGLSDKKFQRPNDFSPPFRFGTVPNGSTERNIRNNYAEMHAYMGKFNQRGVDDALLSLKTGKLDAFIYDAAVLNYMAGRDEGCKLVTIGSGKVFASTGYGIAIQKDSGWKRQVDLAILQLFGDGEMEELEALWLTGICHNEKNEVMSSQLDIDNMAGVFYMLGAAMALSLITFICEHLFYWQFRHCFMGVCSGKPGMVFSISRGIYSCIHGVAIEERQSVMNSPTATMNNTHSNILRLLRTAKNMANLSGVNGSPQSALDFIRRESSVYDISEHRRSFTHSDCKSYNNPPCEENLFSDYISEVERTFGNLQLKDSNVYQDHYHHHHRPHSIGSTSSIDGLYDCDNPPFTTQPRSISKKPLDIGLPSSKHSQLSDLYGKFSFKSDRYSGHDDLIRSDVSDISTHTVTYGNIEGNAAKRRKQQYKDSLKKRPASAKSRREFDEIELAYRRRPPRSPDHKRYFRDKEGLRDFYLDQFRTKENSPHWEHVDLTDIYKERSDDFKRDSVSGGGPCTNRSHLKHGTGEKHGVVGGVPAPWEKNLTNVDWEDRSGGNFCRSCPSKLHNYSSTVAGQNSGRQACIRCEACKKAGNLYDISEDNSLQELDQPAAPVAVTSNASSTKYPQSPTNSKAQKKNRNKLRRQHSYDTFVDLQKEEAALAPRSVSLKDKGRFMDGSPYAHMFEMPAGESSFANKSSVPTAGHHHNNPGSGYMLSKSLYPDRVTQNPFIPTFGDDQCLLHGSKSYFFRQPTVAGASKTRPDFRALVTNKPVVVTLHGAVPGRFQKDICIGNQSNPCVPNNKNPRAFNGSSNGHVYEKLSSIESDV

rat brain cortex = details: [3H]ifenprodil binding; cited from earlier work
NR1/NR2B = target: NR1/NR2B; set-up: method as in PMID 15769547, PMID 15056006; details: NR1/NR2B transfected HEK293 and mouse L(tk-) cell line; cited from earlier work
NR1/NR2B(F176A) = test system: NR1/NR2B(F176A); set-up: method as in PMID 14534359; details: F176A mutation, HEK293 membranes; cited from earlier work
NR1/NR2B(D101A) = test system: NR1/NR2B(D101A); set-up: method as in PMID 14534359; details: D101A mutation, HEK293 membranes; cited from earlier work

T1 sequence (Q00960 27-393): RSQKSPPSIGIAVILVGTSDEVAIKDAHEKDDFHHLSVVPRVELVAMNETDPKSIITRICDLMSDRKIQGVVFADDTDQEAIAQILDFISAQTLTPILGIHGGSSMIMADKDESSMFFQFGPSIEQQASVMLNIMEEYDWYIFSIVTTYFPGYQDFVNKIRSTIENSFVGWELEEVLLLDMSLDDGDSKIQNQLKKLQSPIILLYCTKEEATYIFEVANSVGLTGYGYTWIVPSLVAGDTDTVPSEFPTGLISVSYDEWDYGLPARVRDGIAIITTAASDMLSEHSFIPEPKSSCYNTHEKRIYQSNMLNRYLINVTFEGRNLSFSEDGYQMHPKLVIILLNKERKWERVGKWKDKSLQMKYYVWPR

Kd ([1]; Buffer-9 refolded protein, CD at 25°C, mean ± S.E., n = 5): 7 ± 3 nM | Kd ([1]; Buffer-12 refolded protein, CD at 25°C, n = 5): 4 ± 1 nM | Kd ([1]; Buffer-13 refolded protein, CD): 4 ± 2 nM | Ki ([2]; Affinity (Ki) on displacing ifenprodil): 4 ± 1 nM | Ki ([2]; Affinity (Ki) on displacing ifenprodil, Buffer-12 refolded protein, in presence of saturating 5 μM ifenprodil): 2 ± 1 nM | Ki ([2]; Affinity (Ki) on displacing ifenprodil, Buffer-13 refolded protein, in presence of saturating 5 μM ifenprodil): 3 ± 1 nM | Ki ([2]; range over Buffers -9, -12 and -13, n = 5 per buffer, read-out: Ki values): 2 to 4 nM | IC50 (NR1-1a/NR2B receptors): 59 ± 1 nM
Compound: C[C@@H](CN1CCC(Cc2ccccc2)CC1)[C@@H](O)c1ccc(O)cc1 [RO25,6981]

Compound: CC(C(O)c1ccc(O)cc1)N1CCC(Cc2ccccc2)CC1 (stereo not drawn) [[^3H]ifenprodil]
Kd (rat brain cortex): 36 nM | Kd (NR1/NR2B): 34 to 79 nM

Compound: [^3H]RO25,6981
[3H]RO25,6981 binding to membranes (NR1/NR2B(F176A)): complete loss | [3H]RO25,6981 binding to membranes (NR1/NR2B(D101A)): complete loss
